Measurements published in PMC8700061, “Fragment-Sized and Bidentate (Immuno)Proteasome Inhibitors Derived from Cysteine and Threonine Targeting Warheads” (Cells, 2021).
Like-named read-outs stand apart in the source and are kept apart here.

Assays:
[1] = target: T1, β5i subunit of human iCP (Homo sapiens, UniProt P20618+P28062); experiment: Inhibition of β5i activity (RA at 10 µM, IC50, IC50 shift), Suc-LLVY-AMC; format: biochemical; details: for Group efficiency (GE): ΔpIC50/ΔNheavy with compound 1 as reference
T1 construct: purchased Boston Biochem, Inc., Cambridge, MA, USA
Experimental: (§1) Residual activity measurements were performed at 10 μM final concentrations in the assay buffer (0.01% SDS, 50 mM Tris-HCl, 0.5 mM EDTA, pH 7.4). Stock solutions of the compounds were prepared in DMSO. To 50 μL of each compound in buffer, 25 μL of 0.8 nM human iCP or human cCP (both from Boston Biochem, Inc., Cambridge, MA, USA) were added. After incubation at 37 °C for 30 min, the reaction was started by adding of 25 μL of 100 μM relevant fluorogenic substrate: acetyl-Nle-Pro-Nle-Asp-AMC (Ac-nLPnLD-AMC, (Bachem, Bubendorf, Switzerland)) for β1, acetyl-Pro-Ala-Leu-7-amino-4-methylcoumarin (Ac-PAL-AMC, (Boston Biochem, Inc., Cambridge, MA, USA)) for β1i, t-butyloxycarbonyl-Leu-Arg-Arg-7-amino-4-methylcoumarin (Boc-LRR-AMC, (Bachem, Bubendorf, Switzerland)) for β2 and β2i, succinyl-Leu-Leu-Val-Tyr-7-amino-4-methylcoumarin (Suc-LLVY-AMC) (Bachem, Bubendorf, Switzerland) for β5 and β5i. Reaction progress was recorded on BioTek Synergy HT microplate reader by monitoring fluorescence at 460 nm (λex = 360 nm) for 90 min at 37 °C. The initial linear ranges were used to calculate velocity and determine residual activity. In the case of evaluation of β1, βi, β2, and β2i activities, the assay buffer was modified by replacing SDS with the proteasomal activator PA28α (Boston Biochem, Inc., Cambridge, MA, USA).
Final assay mixtures contained 0.2 nM human iCP or 0.2 nM human cCP in assay buffer (0.01% SDS (or PA28α in cases of β1, β1i subunits), 50 mM Tris-HCl, 0.5 mM EDTA, pH 7.4). Inhibitors were dissolved in DMSO and added to the black 96-well plates for at least eight different concentrations (the final concentration of DMSO was not more than 1%). […] Fluorescence was monitored at 460 nm (λex = 360 nm) for 90 min at 37 °C. The progress of the reactions was recorded and the initial linear ranges were used to calculate the velocity. IC50 values were calculated using GraphPadPrism (GraphPad Software, San Diego, CA, USA) and are means from at least three independent determinations.

[2] = target: T2, β2i subunit of human iCP (Homo sapiens, UniProt P40306+P49720); experiment: Residual β2i activity, Boc-LRR-AMC; format: biochemical; details: 10 µM, PA28α
T2 construct: purchased Boston Biochem, Inc., Cambridge, MA, USA
Experimental: as §1

[3] = UV-Vis-based stability assay in buffer; format: physicochemical; details: for Stability in Buffer (UV-Vis-based assay): after 1 h, assay buffer pH 7.4, 37 °C, 50 µM
Experimental: The aqueous stability of all compounds was determined spectrophotometrically by following the changes in the absorption spectra of the compounds. The buffer solution (50 mM Tris-HCl, 0.5 mM EDTA, pH 7.4) was pre-incubated at 37 °C. Aliquots of the compounds studied (1 mM in DMSO) were transferred to a 96-well flat-bottom UV-transparent microplate (Corning, CLS3635, Corning Inc, Corning, NY, USA) containing the buffer solution to obtain a 50 μM solution containing 5% DMSO (final volume, 300 μL). The plate was incubated without lid at 37 °C in a plate reader (Synergy H4, BioTek Instruments, Inc., Santa Clara, CA, USA) and the absorbance spectrum (244–400 nm) was acquired in sweep mode after 0, 15, 30, 60, 120, 180, and 240 min using a discontinuous kinetic procedure in Gen5 software (BioTek Instruments, Inc., Santa Clara, CA, USA). The time required to read the entire plate was 3 min. To determine the baseline, the compound solution was replaced with pure DMSO and subtracted from each reading. Compounds with an absorbance maximum of less than 0.20 AU were not evaluated using these assays due to the high experimental error. For other compounds, the relative absorbance difference between the first time point and 60 min at the most responsive wavelength was calculated. If the relative absorbance difference for the compound in the buffer was below 0.1, between 0.1–0.2, and above 0.2, the compound was classified as stable, intermediate, and unstable, respectively.

[4] = target: T3, hMAO-B (Homo sapiens, UniProt P27338); experiment: Monoamine oxidase assay, hMAO-B; format: biochemical; details: 30 min pre-incubation, read-out: Residual activity [%] ± SD, hMAO-B
T3 construct: purchased Sigma Aldrich; host or cells: BTI-TN-5B1-4 insect cells
T3 sequence (P27338 1-520): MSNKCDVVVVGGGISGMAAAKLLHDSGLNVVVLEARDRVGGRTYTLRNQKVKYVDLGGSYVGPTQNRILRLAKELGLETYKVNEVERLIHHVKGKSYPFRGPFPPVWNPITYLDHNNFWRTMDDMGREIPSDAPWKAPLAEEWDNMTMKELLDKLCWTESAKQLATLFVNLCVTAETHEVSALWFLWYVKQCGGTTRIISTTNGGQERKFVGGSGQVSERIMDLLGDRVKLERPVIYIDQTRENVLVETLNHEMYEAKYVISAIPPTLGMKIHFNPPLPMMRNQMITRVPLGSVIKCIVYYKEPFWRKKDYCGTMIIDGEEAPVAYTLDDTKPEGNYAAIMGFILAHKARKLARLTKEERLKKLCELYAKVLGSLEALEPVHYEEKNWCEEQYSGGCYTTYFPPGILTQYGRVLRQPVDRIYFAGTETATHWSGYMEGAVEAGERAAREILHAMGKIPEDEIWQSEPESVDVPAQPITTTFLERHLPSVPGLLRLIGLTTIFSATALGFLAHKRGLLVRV
Experimental: The effects of the test compounds on hMAO were investigated using fluorimetric assay. Recombinant hMAO-A and hMAO-B, expressed in BTI-TN-5B1-4 insect cells, horseradish peroxidase type II and p-tyramine hydrochloride were purchased from Sigma Aldrich. Amplex Red was synthesized as previously described.
Briefly, 50 mM sodium phosphate buffer (pH = 7.4, 0.05 vol.% Triton X-114) containing the compounds or the reference inhibitors and hMAO were incubated at 37 °C for 30 min. The reaction was started by adding Amplex Red (final concentration, 250 µM), horseradish peroxidase (final activity, 1 U/mL), and p-tyramine (final concentration, 1 mM). The increase in fluorescence (λex = 530 nm, λem = 590 nm) was monitored for 30 min at 37 °C. DMSO at a concentration of 1.5% (v/v) was used for the control experiments. For the determination of blank (b), the enzyme was replaced by phosphate-buffered solution. Each measurement was performed in duplicate. Inhibitory potencies were expressed as residual activities (RA), as described under the Cholinesterase assay section.

[5] = 30 min pre-incubation, SDS activator, read-out: IC50 (µM), β5i
[6] = 0 min pre-incubation (IC50 shift), read-out: IC50 (µM), β5i, without pre-incubation
[7] = 30 min pre-incubation, SDS activator

Structure (SMILES): CC(C)C[C@H](NC(=O)Cc1ccc2oc(C#N)nc2c1)B(O)O [Compound 40]
- IC50 [1, 5]: 2.4 ± 1 µM
- β2i (RA [%]) ([2]; Table 6): NA (NA, Not active (RA above 95%))
- Stability in Buffer (UV-Vis-based assay) [3]: stable ^b (relative absorbance difference for the compound in the buffer was below 0.1)
- Stability in buffer solutions ([3]; assay buffer / PBS pH 7.4): stable
- remaining activity at 100 µM [4]: 44%

Structure (SMILES): CC(C)C[C@H](NC(=O)CCn1c(C#N)nc2ccccc21)B1O[C@@H]2C[C@@H]3C[C@@H](C3(C)C)[C@]2(C)O1 [Compound 30]
- IC50 [1, 6]: 1.5 ± 0.3 µM
- IC50 [1, 5]: 0.6 µM
- β2i (RA [%]) ([2]; Table 6): NA (NA, Not active (RA above 95%))
- Stability in Buffer (UV-Vis-based assay) [3]: stable ^b,c (relative absorbance difference for the compound in the buffer was below 0.1)
- remaining activity at 100 µM [4]: > 50%

Structure (SMILES): N#Cc1nc2cc(O)ccc2o1 [Compound 11]
- IC50 (µM), β5i [1, 7]: single digit micromolar
- IC50 [1, 5]: 4.2 ± 2.5 µM
- Group efficiency (GE) [1]: 1.30
- β2i (RA [%]) ([2]; Table 3): NA (NA, Not active (RA above 90%))
- Stability in Buffer (UV-Vis-based assay) [3]: stable ^c (relative absorbance difference for the compound in the buffer was below 0.1)
- remaining activity at 100 µM [4]: 29%

Structure (SMILES): CC(=O)Oc1ccc2oc(C#N)nc2c1 [Compound 15]
- IC50 [1, 5]: 7.4 ± 1.7 µM
- Group efficiency (GE) [1]: 0.26
- β2i (RA [%]) ([2]; Table 3): NA (NA, Not active (RA above 90%))
- Stability in Buffer (UV-Vis-based assay) [3]: stable ^c (relative absorbance difference for the compound in the buffer was below 0.1)
- remaining activity at 100 µM [4]: 33%

Structure (SMILES): N#Cc1nc2c(O)cccc2o1 [Compound 10]
- IC50 [1, 6]: 10 ± 1 µM
- IC50 (µM), β5i [1, 7]: single digit micromolar
- IC50 [1, 5]: 3.6 ± 2.8 µM
- IC50 ([1]; IC50 (µM), β5i, 60-min pre-incubation, 60 min pre-incubation (IC50 shift)): 0.5 ± 0.07 µM
- Group efficiency (GE) [1]: 1.36
- β2i (RA [%]) ([2]; Table 3): NA (NA, Not active (RA above 90%))
- Stability in Buffer (UV-Vis-based assay) [3]: stable ^c (relative absorbance difference for the compound in the buffer was below 0.1)
- remaining activity at 100 µM [4]: > 50%

Structure (SMILES): CC(C)C[C@H](NC(=O)CCn1c(C#N)nc2cccc(Cl)c21)B1O[C@@H]2C[C@@H]3C[C@@H](C3(C)C)[C@]2(C)O1 [Compound 38]
- IC50 [1, 6]: 6.4 ± 0.7 µM
- IC50 [1, 5]: 0.6 ± 0.1 µM
- β2i (RA [%]) ([2]; Table 6): NA (NA, Not active (RA above 95%))
- Stability in Buffer (UV-Vis-based assay) [3]: stable ^b,c (relative absorbance difference for the compound in the buffer was below 0.1)
- remaining activity at 100 µM [4]: 42%

Structure (SMILES): CC(C)C[C@H](NC(=O)CCCn1c(C#N)nc2ccccc21)B(O)O [Compound 35]
- IC50 [1, 5]: 7.9 ± 0.5 µM
- β2i (RA [%]) ([2]; Table 6): NA (NA, Not active (RA above 95%))
- Stability in Buffer (UV-Vis-based assay) [3]: stable ^b (relative absorbance difference for the compound in the buffer was below 0.1)
- remaining activity at 100 µM [4]: > 50%
